# According to US8933270B2, “Use of docasatrienes, resolvins, and their stable analogs in the treatment of airway diseases and asthma” (The Brigham and Women's Hospital, Inc., priority 2002, dated 2015):
# Experiments:
# PMN infiltration [1] = assay: Zymosan A-induced peritonitis; format: in vivo, FVB mice; settings: dose increased to 200 ng, intravenous bolus
# PMN infiltration [2] = assay: Zymosan A-induced peritonitis; format: in vivo, FVB mice
# Experimental: FIG. 5 depicts Bioimpact properties of omega-3-derived Resolvins. A) Human glioma cells: Inhibition of TNF-stimulated IL-1β transcripts DBTRG-05MG cells 10^6/ml were stimulated with 50 ng/ml of human recombinant TNFα for 16 hours to induce expression of IL-1β transcripts. Concentration dependence with COX-2 products: 17-HDHA (n), 13-HDHA (l)and di-/tri-HDHA (n). […] (insets) Results are representative of RT-PCR gels of MG cells exposed to 100 nM of 13-HDHA or 17-HDHA and graphed after normalization of the IL-1β transcripts using GAPDH. B) Influence of eicosanoids and docosanoids on fMLP-induced neutrophil migration across micovascular endothelial monolayers Neutrophils (1×10^6 cells/monolayer) were exposed to vehicle containing buffer, or indicated concentrations of aspirin-triggered LXA4 analog (closed diamonds) 5S,12,18R-triHEPE (closed squares), 17R-HDHA (closed circles) or 13-HDHA (closed triangles) for 15 minutes at 37° C. Neutrophils were then layered on HMVEC monolayers and stimulated to transmigrate by a 10^−8 M fMLP gradient for 1 hr at 37° C. Transmigration was assessed by quantitation of the neutrophil marker myeloperoxidase. Results are presented as mean±SEM number of PMN (n=8-12 monolayers per condition). C) Reduction of PMN in murine peritonitis and skin pouch peritonitis: Compounds (100 ng in 120 μL sterile saline) were injected by intravenous bolus injection into the mouse tail vein and followed by 1 ml zymosan A (1 mg/ml) into the peritoneum. Peritoneal lavages were collected (2 h) and cell types were enumerated.
# Human PMN transendothelial migration was quantitated by monitoring myeloperoxidase (MPO) an azurophilic granule marker as in (34, 37). Inflammatory exudates were initiated with intrapouch injection of recombinant mouse TNFα (100 ng/pouch; R&D Systems) into dorsal air pouches (10) of 6-8 wk male FVB mice fed laboratory rodent diet 5001 (Lab Diet, Purina Mills) containing less than 0.25% arachidonic acid, 1.49% EPA and 1.86% DHA followed by ASA (500 μg) at 3.5 h and 300 μg DHA/pouch at 4 h post-TNFα injection. At 6 h (within the resolution phase), pouches were lavaged (3 ml saline) and exudate cells were enumerated Inhibition of TNFα stimulated (100 ng/pouch) PMN infiltration with i.v. tail injection of either 17R-HDHA (as prepared with COX-2 vide infra), 5S,12,18R-HEPE, or a 15-epi-LXA4 analog were determined with pouch lavages taken at 4 h. Peritonitis was performed using 6 to 8-week-old FVB male mice (Charles River Laboratories) fed laboratory Rodent Diet 5001 (Purina Mills) that were anesthetized with isoflurane, and compounds to be tested (125 μl) were administered intravenously. Zymosan A in 1 ml (1 mg/ml) was injected ˜1-1.5 min later in the peritoneum. Each test compound (100 ng/incubation, i.e. 17R-HDHA in ethanol) or vehicle alone was suspended in ˜5 μl and mixed in sterile saline 120 μl. Two hours after the intraperitoneal injections, and in accordance with the Harvard Medical Area Standing Committee on Animals protocol #02570, mice were euthanized and peritoneal lavages rapidly collected for enumeration.
# Peritonitis was induced in 6 to 8 week old male FVB mice by peritoneal injection of 1 mg Zymosan A. Compounds 4,17S and 10,17S-diHDHA were injected by intravenous bolus injection, 1.5 minutes before Zymosan A treatment. Two hours after induction of peritonitis, rapid peritoneal lavages were collected and cell type enumeration was performed.
# ASA-acetylated COX-2 = biological target: T1, ASA-acetylated COX-2 (Homo sapiens, UniProt P35354); assay: Substrate conversion by ASA-acetylated COX-2; format: biochemical; settings: C20:4 to 15R-HETE, DHA to 17R-HDHA; mean±S.E.M., n=3
# T1 construct: made in house; host or cells: Sf9 insect cells (microsomal fractions), then treated with about 2 mM ASA
# T1 sequence (P35354 18-604): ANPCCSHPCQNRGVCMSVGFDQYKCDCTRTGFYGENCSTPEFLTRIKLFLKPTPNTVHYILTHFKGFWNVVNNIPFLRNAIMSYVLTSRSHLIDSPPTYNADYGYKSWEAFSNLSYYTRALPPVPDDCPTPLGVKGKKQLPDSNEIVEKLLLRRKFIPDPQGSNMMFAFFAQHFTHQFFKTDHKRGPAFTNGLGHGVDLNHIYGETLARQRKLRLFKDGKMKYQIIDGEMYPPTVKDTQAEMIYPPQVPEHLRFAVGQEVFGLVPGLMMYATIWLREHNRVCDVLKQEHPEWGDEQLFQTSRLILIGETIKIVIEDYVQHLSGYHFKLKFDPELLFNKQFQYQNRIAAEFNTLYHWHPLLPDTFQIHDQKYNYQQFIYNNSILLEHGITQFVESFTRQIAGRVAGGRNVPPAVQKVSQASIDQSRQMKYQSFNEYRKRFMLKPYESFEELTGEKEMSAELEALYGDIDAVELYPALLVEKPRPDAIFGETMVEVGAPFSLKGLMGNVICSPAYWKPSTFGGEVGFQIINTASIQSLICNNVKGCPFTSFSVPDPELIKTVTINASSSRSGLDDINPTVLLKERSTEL
# Experimental: (§1) Human recombinant COX-2 was overexpressed in Sf9 insect cells (ATCC). The microsomal fractions (˜8 μl) were suspended in Tris (100 mM, pH 8.0) as in (35). ASA was incubated (˜2 mM, 37° C., 30 min) with COX-2 before addition of DHA (10 μM), or in some experiments [1-^14C]-labeled DHA (from American Radiolabeled Chemicals, Inc.), and conversions were monitored in parallel using [1^−14C]-labeled C20:4 (with ASA) (as in FIG. 2; also see text).
# Incubations were extracted with deuterium-labeled internal standards (15-HETE and C20:4) for LC-MS-MS analysis as in (33) using a Finnigan LCQ liquid chromatography ion trap tandem mass spectrometer (San Jose, Calif.) equipped with a LUNA C18-2 (150×2 mm×5 μm or 100×2 mm×5 μm) column and a rapid spectra scanning UV diode array detector that monitored UV absorbance ˜0.2 min prior to samples entering the MS-MS. All intact cell incubations and in vivo exudates were stopped with 2 ml cold methanol and kept at −80° C. for >30 minutes. Samples were extracted using C18 solid phase extraction and analyzed using GC-MS (see Table 2) (Hewlett-Packard), thin layer chromatography or tandem liquid chromatography-mass spectrometry (LC-MS-MS). […] Detailed procedures for isolation, quantitation and structural determination of lipid-derived mediators were recently reported (36) and used here essentially as reported for elucidation of novel products.
# [3] = test system: thromboxane and prostanoids; assay: Thromboxane and prostanoid production in air pouch exudates; format: in vivo, FVB mice; settings: ASA 500 μg per pouch
# From the text: It is noteworthy that the Lab Diet 5001 used to feed these mice contained 1.86% DHA and 1.49% EPA with <0.25% arachidonic acid (Purina Mills).
# human recombinant COX-2 = biological target: T2, human recombinant COX-2 (Homo sapiens, UniProt P35354); assay: Impact of NSAIDs on COX-2 conversion of DHA; format: biochemical
# T2 construct: made in house; host or cells: Sf9 insect cells (microsomal fractions)
# T2 sequence (P35354 18-604): T1 sequence (P35354 18-604)
# Experimental: as §1
# Incubations were extracted with deuterium-labeled internal standards (15-HETE and C20:4) for LC-MS-MS analysis as in (33) using a Finnigan LCQ liquid chromatography ion trap tandem mass spectrometer (San Jose, Calif.) equipped with a LUNA C18-2 (150×2 mm×5 μm or 100×2 mm×5 μm) column and a rapid spectra scanning UV diode array detector that monitored UV absorbance ˜0.2 min prior to samples entering the MS-MS. All intact cell incubations and in vivo exudates were stopped with 2 ml cold methanol and kept at −80° C. for >30 minutes. Samples were extracted using C18 solid phase extraction and analyzed using GC-MS (see Table 2) (Hewlett-Packard), thin layer chromatography or tandem liquid chromatography-mass spectrometry (LC-MS-MS). Also, a Chiralcel OB-H column (4.6×250 mm; J. T. Baker) was used to determine R and S alcohol configurations of monohydroxy-PUFA using isocratic mobile phase (hexane:isopropanol; 97.5:2.5, vol:vol, with a 0.6 ml/min flow rate). Detailed procedures for isolation, quantitation and structural determination of lipid-derived mediators were recently reported (36) and used here essentially as reported for elucidation of novel products.
# Results are the mean±SEM, n=3. Products were extracted, identified, and quantitated using deuterium internal standards and LC-MS-MS (see Methods).
smiles,measurement,setting,value
"CCC=CCC(O)C=CC=CCC=CCC=CC=CC(O)CCC(=O)O (stereo not drawn) [4,17S-diHDHA]","effectiveness relative to 10,17-docosatriene",PMN infiltration [1],essentially equally effective
same,potency relative to comparator at equal dose,"PMN infiltration [2]; PMN/leukocyte infiltration, FIG. 16 and FIG. 18","approximately half as potent as 10,17-docosatriene"
same,inhibition of PMN/leukocyte infiltration,"PMN infiltration [2]; i.v. bolus before zymosan A, lavage at 2 h",dose-dependent inhibition
"CCCCC/C=C\C/C=C\C/C=C\C/C=C\CCCC(=O)O [C20:4, arachidonic acid]",substrate conversion,ASA-acetylated COX-2,67%±5%
"CC(=O)Oc1ccccc1C(=O)O [ASA, aspirin]",in vivo production of thromboxane and prostanoids,[3],completely inhibited
same,% Increase of 17-HDHA,"human recombinant COX-2; NSAID incubated 30 min with COX-2, ASA 2 mM, indomethacin 200 μM, acetaminophen 500 μM, NS398 100 μM, mean±SEM, n=3",97.8 ± 2.0%
same,inhibition at 2000 µM,human recombinant COX-2; read-out: % Inhibition of 13-HDHA,85.7 ± 5.6%
